Test results from patent US20110144345A1, “SULFOXYIMINO-SUBSTITUTED BENZOYL DERIVATIVE AND HERBICIDE” (NIPPON SODA CO., LTD., priority 2008, published 2011).

Columns and labels:
Scirpus juncoides = assay: Paddy pot test, herbicidal effect on Scirpus juncoides; format: in vivo; parameters: scale not given here; settings: Screening, 63 g/ha, examined after 3 weeks
Description: (§1) Plastic pots having an area of 100 cm^2 and a depth of 10 cm were filled with paddy soil which is puddled by adding water, and seeds of Echinochloa crus-galli and Scirpus juncoides were planted in the pots. After seeding, rice plants at the 2.5-leaf stage were transplanted and the pots were filled with water. The rice plants were grown in a greenhouse. […] The herbicidal effects and harmful effects on the rice plants were examined after 3 weeks. Herbicidal effects were examined according to the examination criteria described below and were represented by the herbicidal index. [table] […] [formula]

rice plants = assay: Paddy pot test, harmful effects on transplanted rice plants; format: in vivo; parameters: scale not given here; settings: Screening, 63 g/ha, applied at Echinochloa crus-galli 1.5-leaf stage, examined after 3 weeks
Description: as §1

Echinochloa crus-galli = assay: Paddy pot test, herbicidal effect on Echinochloa crus-galli; format: in vivo; parameters: scale not given here; settings: Screening, 63 g/ha, applied at 1.5-leaf stage, examined after 3 weeks
Description: as §1

Row | melting point [°C] | Rice (harmful effects on the rice plants, index) (rice plants) | Structure (SMILES) | Scripus juncoides (herbicidal index) (Scirpus juncoides) | Echinochloa crus-galli (herbicidal index) (Echinochloa crus-galli)
1 | 122 to 124 | 0 | Cc1ccc(C(=O)c2c(C)nn(C)c2O)c(C)c1N=S1(=O)CCCCC1 [Example 109] | 8 | 7
2 | 107 to 109 | 0 | COc1ccc(C(=O)c2cnn(C)c2O)c(F)c1N=S1(=O)CCCCC1 [Example 112] | 8 | 8
3 | – | 0 | COc1ccc(C(=O)c2cnn(C)c2OCc2ccc3ccccc3c2)c(OC)c1N=S1(=O)CCOCC1 [Example 134] | 8 | 5
4 | – | 0 | COc1c(C(=O)c2cnn(C)c2OCc2ccc3ccccc3c2)ccc(C)c1N=S1(=O)CCCCC1 [Example 136] | 8 | 7
5 | – | 0 | CCN(CC)CC.COc1ccc(C(=O)c2cnn(C)c2O)c(Cl)c1N=S1(=O)CCCCC1 [Example 137] | 8 | 10
6 | – | 0 | COc1ccc(C(=O)c2cnn(C)c2OC(=O)c2ccccc2)c(Cl)c1N=S1(=O)CCCCC1 [Example 138] | 8 | 10
7 | – | 0 | CCCS(=O)(CCC)=Nc1c(OC)ccc(C(=O)c2cnn(C)c2O)c1Cl [Example 145] | 8 | 10
8 | – | 0 | CCCS(=O)(CCC)=Nc1c(OC)ccc(C(=O)c2cnn(C)c2OCc2ccc3ccccc3c2)c1Cl [Example 146] | 6 | 5
9 | – | 0 | CCS(=O)(CC)=Nc1c(C(=O)OC)ccc(C(=O)C2=C(O)CCCC2=O)c1Cl [Example 148] | 8 | 6
10 | – | 0 | COc1ccc(C(=O)c2cnn(C)c2OCc2ccc3ccccc3c2)c(Cl)c1N=S(C)(C)=O [Example 151] | 5 | 6
11 | – | 0 | COC(=O)c1ccc(C(=O)c2cnn(C)c2OC(=O)SC)c(Cl)c1N=S1(=O)CCCCC1 [Example 152] | 8 | 10
12 | – | 0 | COC(=O)c1ccc(C(=O)c2cn(C(=O)SC)n(C)c2=O)c(Cl)c1N=S1(=O)CCCCC1 [Example 153] | 8 | 7
13 | – | 0 | COc1ccc(C(=O)c2cn(C(=O)SC)n(C)c2=O)c(Cl)c1N=S1(=O)CCCCC1 [Example 155] | 8 | 8
14 | – | 0 | CCS(=O)(CC)=Nc1c(C)ccc(C(=O)C2=C(O)CCCC2=O)c1C [Example 158] | 5 | 5
15 | – | 0 | COC(=O)c1ccc(C(=O)C(C#N)C(=O)C2CC2)c(Cl)c1N=S1(=O)CCCCC1 (centres unmarked) [Example 165] | 8 | 5
16 | – | 0 | C#Cc1ccc(C(=O)c2cnn(C)c2O)c(Cl)c1N=S1(=O)CCCCC1 [Example 166] | 8 | 6

Row | melting point [°C] | Rice (harmful effects on the rice plants, index) (rice plants) | Structure (SMILES) | Scripus juncoides (herbicidal index) (Scirpus juncoides) | Echinochloa crus-galli (herbicidal index) (Echinochloa crus-galli)
17 | – | 0 | C#Cc1ccc(C(=O)C2=C(O)CCCC2=O)c(Cl)c1N=S1(=O)CCCCC1 [Example 173] | 7 | 5
18 | – | 0 | CCOc1ccc(C(=O)c2cnn(C)c2OC(=O)SC)c(OC)c1N=S1(=O)CCCCC1 [Example 177] | 7 | 5
19 | – | 0 | Cn1ncc(C(=O)c2ccc(OC(F)F)c(N=S3(=O)CCCCC3)c2Cl)c1OCc1ccc2ccccc2c1 [Example 182] | 7 | 10
20 | – | 0 | COc1ccc(C(=O)c2cnn(C)c2OC(=O)SC)c(OC)c1N=S1(=O)CCCCC1 [Example 183] | 6 | 7
21 | – | 0 | CSC(=O)Oc1c(C(=O)c2ccc(OC(F)F)c(N=S3(=O)CCCCC3)c2Cl)cnn1C [Example 185] | 7 | 10
22 | – | 1 | CCc1ccc(C(=O)c2cnn(C)c2O)c(Cl)c1N=S1(=O)CCCCC1 [Example 188] | 7 | 10
23 | – | 0 | CSC(=O)Oc1c(C(=O)c2cccc(N=S3(=O)CCCCC3)c2Br)cnn1C [Example 197] | 7 | 7
24 | – | 0 | COC(=O)c1ccc(C(=O)c2cnn(C)c2OC(=O)SC(C)C)c(Cl)c1N=S1(=O)CCCCC1 [Example 201] | 7 | 5
25 | – | 0 | CCCSC(=O)Oc1c(C(=O)c2ccc(C(=O)OC)c(N=S3(=O)CCCCC3)c2Cl)cnn1C [Example 202] | 7 | 7
26 | – | 0 | COC(=O)c1ccc(C(=O)c2cnn(C)c2OC(=O)SC(C)(C)C)c(Cl)c1N=S1(=O)CCCCC1 [Example 203] | 7 | 10
27 | – | 0 | C=C(C)c1ccc(C(=O)c2cnn(C)c2O)c(Cl)c1N=S1(=O)CCCCC1 [Example 204] | 7 | 5
28 | – | 0 | C=C(C)c1ccc(C(=O)c2cnn(C)c2OC(=O)SC)c(Cl)c1N=S1(=O)CCCCC1 [Example 207] | 7 | 6
29 | – | 0 | CC(C)c1ccc(C(=O)C2=C(O)CCCC2=O)c(Cl)c1N=S1(=O)CCCCC1 [Example 209] | 6 | 7
30 | – | 0 | COc1ccc(C(=O)c2cnn(C)c2OC(=O)SC)c(Cl)c1N=S(C)(=O)C(C)C (centres unmarked) [Example 211] | 8 | 6
31 | – | 0 | CCS(=O)(CC)=Nc1c(OC)ccc(C(=O)c2cnn(C)c2OCc2ccc3ccccc3c2)c1Cl [Example 248] | 8 | 5
32 | – | 0 | COc1ccc(C(=O)c2c(C)nn(C)c2OCc2ccc3ccccc3c2)c(Cl)c1N=S1(=O)CCCCC1 [Example 253] | 8 | 6
